Assay results from the supplement of paper PMC10307832.

Key:
Experiment in all cases: relative viability (nuclei count vs DMSO), 5 days (fraction); higher = more cells survive
[1] = compound: CC1=CC=C(C=C1)C(=O)CN2C3=C(CCCC3)SC2=N [Pifithrin_alpha] + CC(=O)Nc1cccc(-n2c(=O)n(C3CC3)c(=O)c3c(Nc4ccc(I)cc4F)n(C)c(=O)c(C)c32)c1 [Trametinib] (partner 0.02 µM)
Procedure, shortened: (§1)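 Medians of duplicate plates are given as relative viability. That measure is the nuclei count in treated wells divided by the count in vehicle wells. Counts were taken on 4× images of lung cancer cell lines in 1536-well plates, 5 days after pin-tool dosing the day after seeding with one drug alone or a fixed anchor-drug dose plus five library-drug doses (not always all listed) in √10 steps.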

[2] = compound: CC1=CC=C(C=C1)C(=O)CN2C3=C(CCCC3)SC2=N [Pifithrin_alpha] + Nc1nc2[nH]cc(CCc3ccc(C(=O)N[C@@H](CCC(=O)O)C(=O)O)cc3)c2c(=O)[nH]1 [Pemetrexed] (partner 0.2 µM)
Procedure, shortened: as §1

Bemcentinib + Alpelisib = compound: Nc1nc(Nc2ccc3c(c2)CC[C@@H](N2CCCC2)CC3)nn1-c1cc2c(nn1)-c1ccccc1CCC2 [Bemcentinib] + Cc1nc(NC(=O)N2CCC[C@H]2C(N)=O)sc1-c1ccnc(C(C)(C)C(F)(F)F)c1 [Alpelisib] (partner 2 µM)
Procedure, shortened: as §1

Bemcentinib + Decitabine = compound: Nc1nc(Nc2ccc3c(c2)CC[C@@H](N2CCCC2)CC3)nn1-c1cc2c(nn1)-c1ccccc1CCC2 [Bemcentinib] + Nc1ncn([C@H]2C[C@H](O)[C@@H](CO)O2)c(=O)n1 [Decitabine] (partner 2 µM)
Procedure, shortened: as §1

Cell Line	relative viability ([1]; first compound 3.162 µM)	relative viability ([1]; first compound 10 µM)	relative viability ([1]; first compound 31.62 µM)	relative viability ([1]; first compound 100 µM)	relative viability ([2]; first compound 3.162 µM)	relative viability ([2]; first compound 10 µM)	relative viability ([2]; first compound 31.62 µM)	relative viability ([2]; first compound 100 µM)	relative viability (Bemcentinib + Alpelisib; first compound 0.04 µM)	relative viability (Bemcentinib + Alpelisib; first compound 0.1265 µM)	relative viability (Bemcentinib + Alpelisib; first compound 0.4 µM)	relative viability (Bemcentinib + Alpelisib; first compound 1.265 µM)	relative viability (Bemcentinib + Alpelisib; first compound 4 µM)	relative viability (Bemcentinib + Decitabine; first compound 0.04 µM)	relative viability (Bemcentinib + Decitabine; first compound 0.1265 µM)	relative viability (Bemcentinib + Decitabine; first compound 0.4 µM)	relative viability (Bemcentinib + Decitabine; first compound 1.265 µM)	relative viability (Bemcentinib + Decitabine; first compound 4 µM)	relative viability ([1]; first compound 1 µM)	relative viability ([2]; first compound 1 µM)
NCI-H2405	0.604	0.544	0.567	0.601	0.86	0.957	0.802	0.971	0.728	0.732	0.847	0.756	0.72	0.74	0.717	0.799	0.821	0.761	–	–
UMC-11	0.715	0.719	0.657	0.87	0.869	0.824	0.723	1.08	1.08	1.19	1.11	0.968	1.05	0.576	0.565	0.521	0.628	0.58	0.73	0.866
PC-14	0.654	0.547	0.319	0.383	0.121	0.133	0.0962	0.0885	0.995	1.01	0.925	0.985	1.04	0.209	0.213	0.204	0.176	0.197	0.731	0.143
HCC-78	0.774	0.71	0.541	0.598	0.937	0.941	0.901	0.944	0.246	0.322	0.336	0.39	0.33	0.691	0.655	0.636	0.655	0.637	–	–
A-427	0.727	0.688	0.6	0.552	1	0.87	0.759	0.905	–	1.05	1.18	1.04	1.15	0.569	0.525	0.502	0.57	0.559	0.682	0.827
HCC-827	0.562	0.576	0.498	0.573	0.256	0.27	0.239	0.205	0.999	1.02	0.909	0.957	0.982	0.34	0.347	0.316	0.292	0.332	0.558	0.251
EPLC-272H	0.282	0.281	0.284	0.268	0.3	0.249	0.295	0.382	–	0.991	0.951	0.977	1.07	0.373	0.361	0.387	0.397	0.399	–	0.444
SK-MES-1	0.518	0.462	0.36	0.403	0.845	0.863	0.494	0.623	0.914	0.973	0.998	1.08	1.08	0.363	0.361	0.451	0.315	0.379	0.593	0.84
NCI-H520	0.652	0.785	0.535	0.741	0.741	0.727	0.461	0.699	0.917	1.11	1.2	1.01	0.919	0.515	0.593	0.511	0.499	0.512	0.777	0.721
BEN	0.993	1.12	1.14	1.29	0.741	0.741	0.746	0.629	0.984	1.09	1.11	1.12	1.02	0.696	0.784	0.762	0.629	0.677	1.13	0.523
LK-2	0.856	0.684	0.601	0.687	0.288	0.244	–	0.327	1.1	1.22	1.27	1.15	1.31	0.214	0.374	0.342	0.23	0.313	0.811	0.188
NCI-H2087	0.196	0.169	0.183	0.165	0.665	0.593	0.597	0.74	0.886	1.43	1.09	0.949	1.13	0.295	0.318	0.281	0.265	0.302	0.178	0.608
NCI-H661	0.603	0.555	0.462	0.503	0.922	0.962	0.834	0.888	0.374	0.821	0.624	0.358	0.599	0.558	0.654	0.547	0.57	0.557	0.561	0.937
NCI-H2170	0.987	0.836	0.794	0.903	0.296	0.3	0.234	0.255	0.844	0.766	0.842	1.01	0.882	0.457	0.48	0.463	0.519	0.479	0.994	0.279
LCLC-103H	0.597	0.646	0.623	0.702	0.433	0.436	0.458	0.493	0.957	0.941	1.05	1.06	1.16	0.739	0.735	0.738	0.812	0.764	0.681	0.46
NCI-H441	0.474	0.409	–	0.333	0.248	0.235	–	0.244	0.86	0.74	0.756	0.467	0.976	0.208	0.276	0.218	0.236	0.255	0.421	0.297
